This passage reports MIC results from ChEMBL document CHEMBL3611985, “Synthesis and structure-activity relationships of novel 9-oxime acylides with improved bactericidal activity” (2015).

≈ marks a conversion by molar mass, not a printed value.

Type in all cases: functional
Experiment [1] has as its system Streptococcus pneumoniae. Briefly: Antimicrobial activity against erythromycin-susceptible Streptococcus pneumoniae ATCC 49619 incubated for 20 to 24 hrs by two-fold microbroth dilution method. On the technique in general: Dilution methods test growth across graded concentrations, often in twofold steps.
Experiment [2] concerns Streptococcus pneumoniae. In words: Antimicrobial activity against Streptococcus pneumoniae 07P390 expressing constitutive ermB incubated for 20 to 24 hrs by two-fold microbroth dilution method.
The subject of experiment [3] is Streptococcus pneumoniae. Briefly: Antimicrobial activity against penicillin-susceptible Streptococcus pneumoniae PU09 incubated for 20 to 24 hrs by two-fold microbroth dilution method.
The test system of another experiment is Streptococcus pyogenes. Briefly: Antimicrobial activity against Streptococcus pyogenes 01-968 expressing inducible ermA incubated for 20 to 24 hrs by two-fold microbroth dilution method.
Experiment [4] relates to Staphylococcus aureus. In words: Antimicrobial activity against methicillin-resistant Staphylococcus aureus PU32 expressing inducible ermA incubated for 20 hrs by two-fold microbroth dilution method. Particulars: PU32, 20 h.
The subject of experiment [5] is Staphylococcus aureus. Briefly: Antimicrobial activity against methicillin-resistant Staphylococcus aureus PU20 expressing constitutive ermC incubated for 20 hrs by two-fold microbroth dilution method. Conditions: PU20, 20 h.
A further experiment has as its system Haemophilus influenzae. Briefly: Antimicrobial activity against azithromycin-susceptible and ampicillin-resistant Haemophilus influenzae 11P037 incubated for 20 to 24 hrs by two-fold microbroth dilution method.

As to `CC[C@H]1OC(=O)[C@H](C)[C@@H](OC(=O)Cc2ccccn2)[C@H](C)[C@@H](O[C@@H]2O[C@H](C)C[C@H](N(C)C)[C@H]2O)[C@](C)(OC)C[C@@H](C)/C(=N\OCCCc2cncc(NC(=O)Cc3ccccn3)c2)[C@H](C)[C@H]2OC(=O)O[C@@]21C`, the MIC with Streptococcus pneumoniae [1] was 0.125 mg/L (≈ 0.125 µM); with Streptococcus pneumoniae [2], 4 mg/L (≈ 3.99 µM); against Streptococcus pneumoniae [3], 4 mg/L (≈ 3.99 µM); against Streptococcus pyogenes, 8 mg/L (≈ 7.97 µM); in the experiment on Staphylococcus aureus [4], 4 mg/L (≈ 3.99 µM); in the experiment on Staphylococcus aureus [5], more than 64 mg/L. In the experiment with Haemophilus influenzae, the MIC was more than 64 mg/L.
For the molecule `CC[C@H]1OC(=O)[C@H](C)[C@@H](OC(=O)Cc2ccccn2)[C@H](C)[C@@H](O[C@@H]2O[C@H](C)C[C@H](N(C)C)[C@H]2O)[C@](C)(OC)C[C@@H](C)/C(=N\OC/C=C/c2ccc(NC(=O)Cc3ccccn3)nc2)[C@H](C)[C@H]2OC(=O)O[C@@]21C`, the MIC is 0.125 mg/L (≈ 0.125 µM) in the experiment on Streptococcus pneumoniae [1]; 2 mg/L (≈ 2 µM) with Streptococcus pneumoniae [2]; 2 mg/L (≈ 2 µM) with Streptococcus pneumoniae [3]; 8 mg/L (≈ 7.99 µM) in the experiment on Streptococcus pyogenes; 4 mg/L (≈ 4 µM) in the experiment with Staphylococcus aureus [4]; more than 64 mg/L against Staphylococcus aureus [5]. In the experiment with Haemophilus influenzae, this molecule showed an MIC of more than 64 mg/L.
As for `CC[C@H]1OC(=O)[C@H](C)[C@@H](OC(=O)Cc2ccccn2)[C@H](C)[C@@H](O[C@@H]2O[C@H](C)C[C@H](N(C)C)[C@H]2O)[C@](C)(OC)C[C@@H](C)/C(=N\OC/C=C/c2cccnc2N)[C@H](C)[C@H]2OC(=O)O[C@@]21C`, the MIC is 0.062 mg/L (≈ 0.0703 µM) in the experiment on Streptococcus pneumoniae [1]; 4 mg/L (≈ 4.53 µM) against Streptococcus pneumoniae [2]; 1 mg/L (≈ 1.13 µM) in the experiment on Streptococcus pneumoniae [3]; 2 mg/L (≈ 2.27 µM) in the experiment with Streptococcus pyogenes; 1 mg/L (≈ 1.13 µM) with Staphylococcus aureus [4]; more than 64 mg/L against Staphylococcus aureus [5]. For the same molecule, the MIC with Haemophilus influenzae came to 32 mg/L (≈ 36.3 µM).
On to `CC[C@H]1OC(=O)[C@H](C)[C@@H](OC(=O)Cc2ccccn2)[C@H](C)[C@@H](O[C@@H]2O[C@H](C)C[C@H](N(C)C)[C@H]2O)[C@](C)(OC)C[C@@H](C)/C(=N\OC/C=C/c2cncc(NC(=O)Cc3ccccn3)c2)[C@H](C)[C@H]2OC(=O)O[C@@]21C`, for which the MIC was 0.062 mg/L (≈ 0.0619 µM) in the experiment on Streptococcus pneumoniae [1]; 2 mg/L (≈ 2 µM) in the experiment with Streptococcus pneumoniae [2]; 2 mg/L (≈ 2 µM) in the experiment on Streptococcus pneumoniae [3]; 4 mg/L (≈ 4 µM) in the experiment on Streptococcus pyogenes; 2 mg/L (≈ 2 µM) with Staphylococcus aureus [4]; more than 64 mg/L in the experiment on Staphylococcus aureus [5]. In the experiment on Haemophilus influenzae, this molecule gave an MIC of more than 64 mg/L.
Turning to `CC[C@H]1OC(=O)[C@H](C)[C@@H](OC(=O)Cc2ccccn2)[C@H](C)[C@@H](O[C@@H]2O[C@H](C)C[C@H](N(C)C)[C@H]2O)[C@](C)(OC)C[C@@H](C)/C(=N\OCCCc2ccc(NC(=O)Cc3ccccn3)nc2)[C@H](C)[C@H]2OC(=O)O[C@@]21C`, the MIC with Streptococcus pneumoniae [1] is 0.125 mg/L (≈ 0.125 µM); against Streptococcus pneumoniae [2] it was 2 mg/L (≈ 1.99 µM); with Streptococcus pneumoniae [3], 2 mg/L (≈ 1.99 µM); against Streptococcus pyogenes, 8 mg/L (≈ 7.97 µM); in the experiment with Staphylococcus aureus [4], 2 mg/L (≈ 1.99 µM); against Staphylococcus aureus [5] it was more than 64 mg/L. Moreover, in the experiment with Haemophilus influenzae, the MIC was more than 64 mg/L.
In the case of `CC[C@H]1OC(=O)[C@H](C)[C@@H](OC(=O)Cc2ccccn2)[C@H](C)[C@@H](O[C@@H]2O[C@H](C)C[C@H](N(C)C)[C@H]2O)[C@](C)(OC)C[C@@H](C)/C(=N\OCC#Cc2ccc([N+](=O)[O-])nc2)[C@H](C)[C@H]2OC(=O)O[C@@]21C`, the MIC in the experiment with Streptococcus pneumoniae [1] is 0.031 mg/L (≈ 0.0341 µM); with Streptococcus pneumoniae [2], 1 mg/L (≈ 1.1 µM); in the experiment on Streptococcus pneumoniae [3] it was 0.5 mg/L (≈ 0.549 µM); with Streptococcus pyogenes it was 0.5 mg/L (≈ 0.549 µM); with Staphylococcus aureus [4], 0.25 mg/L (≈ 0.275 µM); with Staphylococcus aureus [5] it was more than 64 mg/L. In the experiment with Haemophilus influenzae, this molecule yielded an MIC of more than 64 mg/L.
As to `CC[C@H]1OC(=O)[C@H](C)[C@@H](OC(=O)Cc2ccccn2)[C@H](C)[C@@H](O[C@@H]2O[C@H](C)C[C@H](N(C)C)[C@H]2O)[C@](C)(OC)C[C@@H](C)/C(=N\OCC#Cc2ccc(N)nc2)[C@H](C)[C@H]2OC(=O)O[C@@]21C`, the MIC is 0.008 mg/L (≈ 0.00909 µM) with Streptococcus pneumoniae [1]; 2 mg/L (≈ 2.27 µM) in the experiment with Streptococcus pneumoniae [2]; 0.5 mg/L (≈ 0.568 µM) in the experiment on Streptococcus pneumoniae [3]; 1 mg/L (≈ 1.14 µM) against Streptococcus pyogenes; 0.5 mg/L (≈ 0.568 µM) with Staphylococcus aureus [4]; more than 64 mg/L with Staphylococcus aureus [5]. The same molecule had an MIC against Haemophilus influenzae of 32 mg/L (≈ 36.4 µM).
As for `CC[C@H]1OC(=O)[C@H](C)[C@@H](OC(=O)Cc2ccccn2)[C@H](C)[C@@H](O[C@@H]2O[C@H](C)C[C@H](N(C)C)[C@H]2O)[C@](C)(OC)C[C@@H](C)/C(=N\OCC#Cc2cccc(NC(=O)Cc3ccccn3)n2)[C@H](C)[C@H]2OC(=O)O[C@@]21C`, the MIC is 0.125 mg/L (≈ 0.125 µM) with Streptococcus pneumoniae [1]; 1 mg/L (≈ 1 µM) in the experiment with Streptococcus pneumoniae [2]; 2 mg/L (≈ 2 µM) in the experiment on Streptococcus pneumoniae [3]; 4 mg/L (≈ 4 µM) against Streptococcus pyogenes; 2 mg/L (≈ 2 µM) in the experiment on Staphylococcus aureus [4]; more than 64 mg/L in the experiment with Staphylococcus aureus [5]. In the experiment with Haemophilus influenzae, this molecule displayed an MIC of more than 64 mg/L.
On to `CC[C@H]1OC(=O)[C@H](C)[C@@H](OC(=O)Cc2ccccn2)[C@H](C)[C@@H](O[C@@H]2O[C@H](C)C[C@H](N(C)C)[C@H]2O)[C@](C)(OC)C[C@@H](C)/C(=N\OC/C=C/c2ccc(N)nc2)[C@H](C)[C@H]2OC(=O)O[C@@]21C`, for which the MIC in the experiment with Streptococcus pneumoniae [1] was 0.031 mg/L (≈ 0.0351 µM); in the experiment on Streptococcus pneumoniae [2], 1 mg/L (≈ 1.13 µM); against Streptococcus pneumoniae [3], 1 mg/L (≈ 1.13 µM); in the experiment with Streptococcus pyogenes it was 4 mg/L (≈ 4.53 µM); with Staphylococcus aureus [4] it was 0.5 mg/L (≈ 0.567 µM); in the experiment on Staphylococcus aureus [5], more than 64 mg/L. In the experiment with Haemophilus influenzae, this molecule yielded an MIC of 32 mg/L (≈ 36.3 µM).
On to `CC[C@H]1OC(=O)[C@H](C)[C@@H](OC(=O)Cc2ccccn2)[C@H](C)[C@@H](O[C@@H]2O[C@H](C)C[C@H](N(C)C)[C@H]2O)[C@](C)(OC)C[C@@H](C)/C(=N\OCC#Cc2cncc(NC(=O)Cc3ccccn3)c2)[C@H](C)[C@H]2OC(=O)O[C@@]21C`, for which the MIC in the experiment with Streptococcus pneumoniae [1] was 0.031 mg/L (≈ 0.031 µM); in the experiment with Streptococcus pneumoniae [2], 1 mg/L (≈ 1 µM); with Streptococcus pneumoniae [3], 2 mg/L (≈ 2 µM); in the experiment on Streptococcus pyogenes, 4 mg/L (≈ 4 µM); against Staphylococcus aureus [4] it was 2 mg/L (≈ 2 µM); in the experiment on Staphylococcus aureus [5] it was more than 64 mg/L. Besides, the MIC against Haemophilus influenzae is more than 64 mg/L.
In the case of `CC[C@H]1OC(=O)[C@H](C)[C@@H](OC(=O)Cc2ccccn2)[C@H](C)[C@@H](O[C@@H]2O[C@H](C)C[C@H](N(C)C)[C@H]2O)[C@](C)(OC)C[C@@H](C)/C(=N\OCC#Cc2ccc(NC(=O)Cc3ccccn3)nc2)[C@H](C)[C@H]2OC(=O)O[C@@]21C`, the MIC in the experiment on Streptococcus pneumoniae [1] is 0.062 mg/L (≈ 0.0621 µM); against Streptococcus pneumoniae [2] it was 1 mg/L (≈ 1 µM); in the experiment with Streptococcus pneumoniae [3], 1 mg/L (≈ 1 µM); in the experiment on Streptococcus pyogenes it was 4 mg/L (≈ 4 µM); against Staphylococcus aureus [4] it was 4 mg/L (≈ 4 µM); against Staphylococcus aureus [5] it was more than 64 mg/L. Besides, the MIC against Haemophilus influenzae is more than 64 mg/L.
For `CC[C@H]1OC(=O)[C@H](C)[C@@H](OC(=O)Cc2ccccn2)[C@H](C)[C@@H](O[C@@H]2O[C@H](C)C[C@H](N(C)C)[C@H]2O)[C@](C)(OC)C[C@@H](C)/C(=N\OC/C=C/c2ccnc(NC(=O)Cc3ccccn3)c2)[C@H](C)[C@H]2OC(=O)O[C@@]21C`, the MIC is 0.125 mg/L (≈ 0.125 µM) in the experiment with Streptococcus pneumoniae [1]; 4 mg/L (≈ 4 µM) in the experiment on Streptococcus pneumoniae [2]; 4 mg/L (≈ 4 µM) against Streptococcus pneumoniae [3]; 4 mg/L (≈ 4 µM) in the experiment with Streptococcus pyogenes; 4 mg/L (≈ 4 µM) against Staphylococcus aureus [4]; more than 64 mg/L with Staphylococcus aureus [5]. Further, the MIC against Haemophilus influenzae is more than 64 mg/L.
